In ChEMBL document CHEMBL1147182, “Clubbed thiazoles by MAOS: a novel approach to cyclin-dependent kinase 5/p25 inhibitors as a potential treatment for Alzheimer's disease” (Bioorg Med Chem, 2007) one finds IC50 and Activity data, which are given here for 59 compounds.

Series [1] addresses Cyclin-dependent kinase 5/CDK5 activator 1 (Homo sapiens, UniProt Q00535). The experiment in a line: Inhibition of human cdk5/p25 by SPA. It counts as protein-complex assay.
Series [2] in a line: Cytotoxicity against VeroC1008 cells at 6.25 to 50 ug/ml by neutral red uptake assay. Conditions: chlorocebus sabaeus, vero. It counts as cell-based.

Chain of Cyclin-dependent kinase 5/CDK5 activator 1 (Q00535 whole entry): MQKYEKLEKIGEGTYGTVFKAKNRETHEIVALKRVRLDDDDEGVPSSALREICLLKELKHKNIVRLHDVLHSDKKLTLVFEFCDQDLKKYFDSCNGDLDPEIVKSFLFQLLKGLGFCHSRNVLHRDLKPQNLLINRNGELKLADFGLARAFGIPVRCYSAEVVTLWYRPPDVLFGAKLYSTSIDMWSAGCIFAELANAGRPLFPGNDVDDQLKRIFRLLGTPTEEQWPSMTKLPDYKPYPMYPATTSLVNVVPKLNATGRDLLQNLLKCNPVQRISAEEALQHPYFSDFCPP
Chain of Cyclin-dependent kinase 5/CDK5 activator 1 (Q15078 whole entry, further chain): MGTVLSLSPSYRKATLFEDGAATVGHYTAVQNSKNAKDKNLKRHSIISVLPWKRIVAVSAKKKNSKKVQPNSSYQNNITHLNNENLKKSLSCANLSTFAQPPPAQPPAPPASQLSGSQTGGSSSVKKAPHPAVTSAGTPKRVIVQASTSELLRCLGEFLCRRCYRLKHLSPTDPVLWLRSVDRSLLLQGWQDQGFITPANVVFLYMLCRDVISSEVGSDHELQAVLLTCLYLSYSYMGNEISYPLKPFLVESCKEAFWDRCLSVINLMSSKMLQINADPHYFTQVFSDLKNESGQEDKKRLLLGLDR

A word on the IC50: it is the concentration that inhibits the measured activity by half. Read a high IC50 as lower potency. As for `CC(=O)Nn1c(Cc2csc(NCCC(=O)O)n2)nnc1SCc1nnc(S)n1N`, the IC50 in series [1] came to 6410 nM. The Activity result in series [2] was “Non-toxic”.
The corresponding values for `O=C(Nc1nc(Cc2nnc(SCSc3nnc(Cc4csc(NC(=O)c5ccccc5)n4)n3NC(=O)c3ccc(Cl)cc3)n2NC(=O)c2ccc(Cl)cc2)cs1)c1ccccc1` are 640 nM and “Non-toxic”.
For `CC(=O)Nn1c(Cc2csc(NC(=O)CCl)n2)nnc1SCC#N`, the IC50 in series [1] was determined as 415 nM. Further, the Activity result in series [2] is “Non-toxic”.
As to `CC(=O)Nn1c(Cc2csc(NC(=O)c3ccccc3)n2)nnc1SCC(=O)NNC(=O)c1ccccc1`, in series [1], the midpoint of inhibition, the IC50, lay at 413 nM. Moreover, the Activity entry in series [2] is “Non-toxic”.
The corresponding values for `O=C(O)CCNc1nc(Cc2nnc(SCC(=O)NNC(=O)c3ccccc3)n2NC(=O)c2ccc(Cl)cc2)cs1` are 268 nM and “Non-toxic”.
Regarding `O=C(O)CCNc1nc(Cc2nnc(SCC(=O)NNC(=O)c3ccccc3)n2NC(=O)c2ccccc2)cs1`, in series [1], the IC50 worked out at 432 nM. Also, the Activity entry in series [2] is on record as “Non-toxic”.
The corresponding values for `O=C(O)CCNc1nc(Cc2nnc(SCC(=O)N/N=C/c3ccccc3)n2NC(=O)c2ccc(Cl)cc2)cs1` are 238 nM and “Non-toxic”.
Regarding `CC(=O)Nn1c(Cc2csc(NC(=O)CCl)n2)nnc1SCc1nnc(S)n1N`, the IC50 in series [1] worked out at 4640 nM. Further, the Activity result in series [2] was “Non-toxic”.
The corresponding values for `CC(=O)Nn1c(Cc2csc(NC(=O)c3ccccc3)n2)nnc1SCC(=O)NNC(=O)CCl` are 356 nM and “Non-toxic”.
The corresponding values for `CC(=O)Nc1nc(Cc2nnc(SCC(=O)NN)n2NC(=O)c2ccccc2)cs1` are 197 nM and “Non-toxic”.
As to `NNC(=O)CSc1nnc(Cc2csc(NC(=O)CCl)n2)n1NC(=O)c1ccccc1`, in series [1], the midpoint of inhibition, the IC50, lay at 246 nM. Further, the Activity result in series [2] is recorded as “Non-toxic”.
For `CC(=O)NNC(=O)CSc1nnc(Cc2csc(NC(=O)c3ccccc3)n2)n1NC(=O)c1ccccc1`, in series [1], the IC50 was 564 nM. Also, the Activity entry in series [2] was “Non-toxic”.
Regarding `CC(=O)Nc1nc(Cc2nnc(SCSc3nnc(Cc4csc(NC(C)=O)n4)n3NC(=O)c3ccc(Cl)cc3)n2NC(=O)c2ccc(Cl)cc2)cs1`, the IC50 in series [1] came out at 382 nM. Also, the Activity result in series [2] was “Non-toxic”.
The corresponding values for `Nn1c(CSc2nnc(Cc3csc(NC(=O)CCl)n3)n2NC(=O)c2ccc(Cl)cc2)n[nH]c1=S` are 3260 nM and “Non-toxic”.
The corresponding values for `COC(=O)CSc1nnc(Cc2csc(NCCC(=O)O)n2)n1NC(=O)c1ccc(Cl)cc1` are 560 nM and “Non-toxic”.
In series [1], `COC(=O)CSc1nnc(Cc2csc(NC(=O)c3ccccc3)n2)n1NC(=O)c1ccccc1` returned an IC50 of 364 nM. Besides, the Activity result in series [2] is reported as “Non-toxic”.
The corresponding values for `N#CCSc1nnc(Cc2csc(NC(=O)c3ccccc3)n2)n1NC(=O)c1ccccc1` are 496 nM and “Non-toxic”.
`CC(=O)Nn1c(Cc2csc(NC(=O)CCl)n2)nnc1SCC(=O)NNC(=O)CCl` displayed an IC50 in series [1] of 462 nM. Also, the Activity result in series [2] is listed as “Non-toxic”.
The corresponding values for `CC(=O)Nc1nc(Cc2nnc(SCC(=O)N/N=C/c3ccccc3)n2NC(=O)c2ccccc2)cs1` are 485 nM and “Non-toxic”.
The corresponding values for `COC(=O)CSc1nnc(Cc2csc(NC(C)=O)n2)n1NC(=O)c1ccc(Cl)cc1` are 380 nM and “Non-toxic”.
Consider `O=C(CSc1nnc(Cc2csc(NC(=O)CCl)n2)n1NC(=O)c1ccccc1)NNC(=O)c1ccccc1`, for which, in series [1], the 50% inhibitory concentration (IC50) was 467 nM. Besides, the Activity result in series [2] is listed as “Non-toxic”.
The corresponding values for `O=C(CCl)NNC(=O)CSc1nnc(Cc2csc(NC(=O)c3ccccc3)n2)n1NC(=O)c1ccc(Cl)cc1` are 340 nM and “Non-toxic”.
`O=C(CSc1nnc(Cc2csc(NC(=O)c3ccccc3)n2)n1NC(=O)c1ccccc1)N/N=C/c1ccccc1` had an IC50 in series [1] of 496 nM. Moreover, the Activity entry in series [2] is “Non-toxic”.
The corresponding values for `O=C(O)CCNc1nc(Cc2n[nH]c(=S)n2NC(=O)c2ccc(Cl)cc2)cs1` are 462 nM and “Non-toxic”.
The corresponding values for `O=C(O)CCNc1nc(Cc2nnc(SCSc3nnc(Cc4csc(NCCC(=O)O)n4)n3NC(=O)c3ccc(Cl)cc3)n2NC(=O)c2ccc(Cl)cc2)cs1` are 168 nM and “Non-toxic”.
The corresponding values for `O=C(CCl)NNC(=O)CSc1nnc(Cc2csc(NC(=O)CCl)n2)n1NC(=O)c1ccccc1` are 530 nM and “Non-toxic”.
In turn, `CC(=O)NNC(=O)CSc1nnc(Cc2csc(NC(C)=O)n2)n1NC(C)=O` returned an IC50 in series [1] of 384 nM. Besides, the Activity entry in series [2] is recorded as “Non-toxic”.
The corresponding values for `CC(=O)Nn1c(Cc2csc(NCCC(=O)O)n2)n[nH]c1=S` are 436 nM and “Non-toxic”.
Consider `O=C(CSc1nnc(Cc2csc(NC(=O)CCl)n2)n1NC(=O)c1ccc(Cl)cc1)NNC(=O)c1ccccc1`, for which 640 nM corresponded to half-maximal inhibition in series [1] (IC50). Also, the Activity result in series [2] is “Non-toxic”.
Turning to `O=C(CCl)NNC(=O)CSc1nnc(Cc2csc(NC(=O)c3ccccc3)n2)n1NC(=O)c1ccccc1`, the IC50 in series [1] was determined as 542 nM. In series [2], the Activity entry was “Non-toxic”.
The corresponding values for `CC(=O)NNC(=O)CSc1nnc(Cc2csc(NCCC(=O)O)n2)n1NC(=O)c1ccccc1` are 472 nM and “Non-toxic”.
The corresponding values for `CC(=O)Nc1nc(Cc2nnc(SCc3n[nH]c(=S)n3N)n2NC(=O)c2ccccc2)cs1` are 6540 nM and “Non-toxic”.
In the case of `CC(=O)Nn1c(Cc2csc(NC(=O)c3ccccc3)n2)nnc1SCc1nnc(S)n1N`, the IC50 in series [1] worked out at 6340 nM. Moreover, in series [2], the Activity entry is “Non-toxic”.
Compound `CC(=O)Nc1nc(Cc2nnc(SCc3nnc(S)n3N)n2NC(C)=O)cs1` registered an IC50 in series [1] of 5250 nM. In series [2], the Activity entry is reported as “Non-toxic”.
The corresponding values for `COC(=O)CSc1nnc(Cc2csc(NC(=O)c3ccccc3)n2)n1NC(C)=O` are 598 nM and “Non-toxic”.
The corresponding values for `CC(=O)Nc1nc(Cc2nnc(SCC(=O)NNC(=O)CCl)n2NC(=O)c2ccccc2)cs1` are 643 nM and “Non-toxic”.
The corresponding values for `CC(=O)Nn1c(Cc2csc(NC(=O)CCl)n2)nnc1SCC(=O)NNC(=O)c1ccccc1` are 365 nM and “Non-toxic”.
For the compound `Nn1c(S)nnc1CSc1nnc(Cc2csc(NC(=O)CCl)n2)n1NC(=O)c1ccccc1`, the half-maximal inhibitory concentration (IC50) in series [1] was determined as 6990 nM. Besides, the Activity entry in series [2] was “Non-toxic”.
The corresponding values for `COC(=O)CSc1nnc(Cc2csc(NCCC(=O)O)n2)n1NC(=O)c1ccccc1` are 648 nM and “Non-toxic”.
The corresponding values for `Nn1c(CSc2nnc(Cc3csc(NCCC(=O)O)n3)n2NC(=O)c2ccccc2)n[nH]c1=S` are 4780 nM and “Non-toxic”.
The corresponding values for `CC(=O)Nn1c(Cc2csc(NC(=O)CCl)n2)nnc1SCC(=O)NN` are 201 nM and “Non-toxic”.
`O=C(CCl)Nc1nc(Cc2nnc(SCSc3nnc(Cc4csc(NC(=O)CCl)n4)n3NC(=O)c3ccc(Cl)cc3)n2NC(=O)c2ccc(Cl)cc2)cs1` returned an IC50 in series [1] of 340 nM. Besides, the Activity entry in series [2] was “Non-toxic”.
The corresponding values for `CC(=O)NNC(=O)CSc1nnc(Cc2csc(NC(=O)c3ccccc3)n2)n1NC(C)=O` are 643 nM and “Non-toxic”.
The corresponding values for `NNC(=O)CSc1nnc(Cc2csc(NC(=O)c3ccccc3)n2)n1NC(=O)c1ccccc1` are 268 nM and “Non-toxic”.
For `CC(=O)Nc1nc(Cc2nnc(SCSc3nnc(Cc4csc(NC(C)=O)n4)n3NC(=O)c3ccccc3)n2NC(=O)c2ccccc2)cs1`, the IC50 in series [1] is 647 nM. Further, the Activity result in series [2] is reported as “Non-toxic”.
With `O=C(Nc1nc(Cc2nnc(SCSc3nnc(Cc4csc(NC(=O)c5ccccc5)n4)n3NC(=O)c3ccccc3)n2NC(=O)c2ccccc2)cs1)c1ccccc1`, in series [1], inhibition was half-maximal at 698 nM (IC50). The Activity entry in series [2] is reported as “Non-toxic”.
The corresponding values for `O=C(Nc1nc(Cc2nnc(S)n2NC(=O)c2ccc(Cl)cc2)cs1)c1ccccc1` are 186 nM and “Non-toxic”.
The corresponding values for `Nn1c(CSc2nnc(Cc3csc(NC(=O)c4ccccc4)n3)n2NC(=O)c2ccc(Cl)cc2)n[nH]c1=S` are 3180 nM and “Non-toxic”.
The corresponding values for `COC(=O)CSc1nnc(Cc2csc(NC(=O)CCl)n2)n1NC(=O)c1ccccc1` are 674 nM and “Non-toxic”.
In turn, `CC(=O)Nc1nc(Cc2nnc(SCC#N)n2NC(=O)c2ccccc2)cs1` had an IC50 in series [1] of 395 nM. In addition, the Activity entry in series [2] was “Non-toxic”.
The corresponding values for `N#CCSc1nnc(Cc2csc(NC(=O)CCl)n2)n1NC(=O)c1ccccc1` are 657 nM and “Non-toxic”.
`O=C(CCl)Nc1nc(Cc2nnc(S)n2NC(=O)c2ccc(Cl)cc2)cs1` displayed an IC50 in series [1] of 642 nM. Besides, the Activity result in series [2] is on record as “Non-toxic”.
`COC(=O)CSc1nnc(Cc2csc(NC(C)=O)n2)n1NC(C)=O`: the half-maximal inhibitory concentration (IC50) in series [1] came out at 467 nM. The Activity entry in series [2] is “Non-toxic”.
The corresponding values for `O=C(O)CCNc1nc(Cc2nnc(S)n2NC(=O)c2ccccc2)cs1` are 674 nM and “Non-toxic”.
The corresponding values for `O=C(O)CCNc1nc(Cc2nnc(SCC(=O)N/N=C/c3ccccc3)n2NC(=O)c2ccccc2)cs1` are 526 nM and “Non-toxic”.
In the case of `CC(=O)Nn1c(Cc2csc(NC(=O)CCl)n2)nnc1SCC(=O)N/N=C/c1ccccc1`, the midpoint of inhibition in series [1], the IC50, lay at 536 nM. Besides, the Activity result in series [2] is on record as “Non-toxic”.
As for `O=C(Nc1nc(Cc2n[nH]c(=S)n2NC(=O)c2ccccc2)cs1)c1ccccc1`, it took 894 nM to reach half-maximal inhibition in series [1] (IC50). For the same compound, the Activity result in series [2] is recorded as “Non-toxic”.
In series [1], `CC(=O)Nn1c(Cc2csc(NCCC(=O)O)n2)nnc1SCC(=O)NNC(=O)CCl` had an IC50 of 264 nM. For the same compound, the Activity entry in series [2] is on record as “Non-toxic”.
The corresponding values for `CC(=O)Nc1nc(Cc2n[nH]c(=S)n2NC(=O)c2ccccc2)cs1` are 574 nM and “Non-toxic”.
